Literature values, collected in US20110052683A1, “PHARMACEUTICAL PREPARATION FOR TREATING CARDIOVASCULAR DISEASE” (priority 2008, published 2011).

Experiments:
[1] = combined administration of lovastatin with diltiazem
[2] = combined administration of atorvastatin with diltiazem
[3] = combined administration of pravastatin with verapamil

## CC[C@H](C)C(=O)O[C@H]1C[C@@H](C)C=C2C=C[C@H](C)[C@H](CC[C@@H]3C[C@@H](O)CC(=O)O3)[C@H]21 [lovastatin]
[1]
  change in Cmax and AUC: sudden increase in Cmax and AUC

## CC(C)c1c(C(=O)Nc2ccccc2)c(-c2ccccc2)c(-c2ccc(F)cc2)n1CC[C@@H](O)C[C@@H](O)CC(=O)O [atorvastatin]
[2]
  side effects of combined administration: occurrence of rhabdomyolysis and acute hepatitis

## CC[C@H](C)C(=O)O[C@H]1C[C@H](O)C=C2C=C[C@H](C)[C@H](CC[C@@H](O)C[C@@H](O)CC(=O)O)[C@H]21 [pravastatin]
[3]
  increase in AUC: 31%
  increase in Cmax: 42%
